This passage reports EC50 results from patent US20230127839A1, “COMPOUNDS AND COMPOSITIONS FOR TREATING CONDITIONS ASSOCIATED WITH STING ACTIVITY” (IFM Due, Inc., priority 2019, published 2023).

Where only a bound is given, the exact number is not on record here.

The target in the assay is T1, hSTING (Homo sapiens, UniProt Q86WV6, G230A/H232R/R293Q/R71H).
T1 construct: host or cells: THP1-Dual KO-IFNAR2 cells
Put plainly: STING reporter assay (luciferase) in THP1-Dual KO-IFNAR2 cells stimulated with 2'3'cGAMP. The assay is classed as cell-based. Particulars: 2'3'cGAMP 15 μM, 24 h, luciferase reporter activity. How it is done: STING pathway activation by the compounds described herein is measured using THP1-Dual™ cells (KO-IFNAR2).
THP1-Dual™ KO-IFNAR2 Cells (obtained from invivogen) are maintained in RPMI, 10% FCS, 5 ml P/S, 2 mM L-glut, 10 mM Hepes, and 1 mM sodium pyruvate.
Compounds are spotted in empty 384 well tissue culture plates (Greiner 781182) by Echo for a final concentration of 0.0017-100 μM. Cells are plated into the TC plates at 40 μL per well, 2×10E6 cells/mL. For activation with STING ligand, 2′3′cGAMP (MW 718.38, obtained from Invivogen), is prepared in Optimem media.
The following solutions are prepared for each 1×384 plate: • Solution A: 2 mL Optimem with one of the following stimuli: • 60 uL of 10 mM 2′3′cGAMP->150 μM stock • Solution B: 2 mL Optimem with 60 μL Lipofectamine 2000->Incubate 5 min at RT
2 mL of solution A and 2 ml Solution B is mixed and incubated for 20 min at room temperature (RT). 20 uL of transfection solution (A+B) is added on top of the plated cells, with a final 2′3′cGAMP concentration of 15 μM. The plates are then centrifuged immediately at 340 g for 1 minute, after which they are incubated at 37° C., 5% CO2, >98% humidity for 24 h. Luciferase reporter activity is then measured. EC50 values are calculated by using standard methods known in the art.
Luciferase reporter assay: 10 μL of supernatant from the assay is transferred to white 384-plate with flat bottom and squared wells. One pouch of QUANTI-Luc™ Plus us dissolved in 25 mL of water. 100 μL of QLC Stabilizer per 25 mL of QUANTI-Luc™ Plus solution is added. 50 μL of QUANTI-Luc™ Plus/QLC solution per well is then added. Luminescence is measured on a Platereader (e.g., Spectramax I3X (Molecular Devices GF3637001)).
Luciferase reporter activity is then measured. EC50 values are calculated by using standard methods known in the art.
On the technique in general: A reporter such as luciferase makes a cellular process visible.

T1 sequence (Q86WV6 whole entry R71H/G230A/H232R/R293Q): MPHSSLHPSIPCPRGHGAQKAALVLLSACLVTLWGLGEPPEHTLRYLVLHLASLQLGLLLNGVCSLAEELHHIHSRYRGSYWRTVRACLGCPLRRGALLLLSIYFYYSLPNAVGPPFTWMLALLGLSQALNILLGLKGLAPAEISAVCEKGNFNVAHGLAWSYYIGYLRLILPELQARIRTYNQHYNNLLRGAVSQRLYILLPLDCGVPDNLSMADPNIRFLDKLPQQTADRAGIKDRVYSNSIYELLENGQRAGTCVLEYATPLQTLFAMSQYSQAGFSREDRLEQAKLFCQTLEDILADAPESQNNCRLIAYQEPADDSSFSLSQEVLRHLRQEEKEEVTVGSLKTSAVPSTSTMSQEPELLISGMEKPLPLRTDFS

In general, EC50 refers to the concentration that produces a half-maximal response. A higher EC50 goes with weaker potency. For `O=C(Nc1ccc(C2CC(F)(F)C2)c(Cl)c1)Nc1c[nH]c2ccccc12` [Compound 246, 1-(3-chloro-4-(3,3-difluorocyclobutyl)phenyl)-3-(1H-indol-3-yl)urea], the concentration giving a half-maximal response (EC50) is 40 to 200 nM.

`O=C(Nc1cnn(CC2CCC2)c1)Nc1c[nH]c2ccc(Cl)cc12` [Compound 235, 1-(5-chloro-1H-indol-3-yl)-3-(1-(cyclobutylmethyl)-1H-pyrazol-4-yl)urea] returned a 50% effective concentration (EC50) of 200 to 1000 nM.

The compound `CC1(C)OCC(c2ncc(NC(=O)Nc3c[nH]c4ccccc34)cc2Cl)CO1` [Compound 263, 1-(5-chloro-6-(2,2-dimethyl-1,3-dioxan-5-yl)pyridin-3-yl)-3-(1H-indol-3-yl)urea] returned an EC50 of 200 to 1000 nM.

In turn, `O=C(Nc1ccnc(C2CCN(CC(F)(F)F)CC2)c1)Nc1c[nH]c2cc(F)c(F)cc12` [Compound 213, 1-(5,6-difluoro-1H-indol-3-yl)-3-(2-(1-(2,2,2-trifluoroethyl)piperidin-4-yl)pyridin-4-yl)urea] showed a half-maximal effective concentration (EC50) of 1000 to 5000 nM.

`Cc1cc(NC(=O)Nc2c[nH]c3ccc(CCO)cc23)cnc1N1CCC(F)(F)CC1` [Compound 164, 1-(6-(4,4-difluoropiperidin-1-yl)-5-methylpyridin-3-yl)-3-(5-(2-hydroxyethyl)-1H-indol-3-yl)urea] had an EC50 of 1000 to 5000 nM.

For the compound `O=C(Nc1cnc(C2CCC(F)(F)CC2)c(Cl)c1)Nc1c[nH]c2cc(Cl)ccc12` [Compound 140, 1-(6-chloro-1H-indol-3-yl)-3-(5-chloro-6-(4,4-difluorocyclohexyl)pyridin-3-yl)urea], the EC50 is 1000 to 5000 nM.

In turn, `O=C(Nc1cnc(N2CCC3(CC2)CC3)c(Cl)c1)Nc1c[nH]c2cc(F)c(F)cc12` [Compound 241, 1-(5-chloro-6-(6-azaspiro[2.5]octan-6-yl)pyridin-3-yl)-3-(5,6-difluoro-1H-indol-3-yl)urea] yielded an EC50 of 40 to 200 nM.

On to `Cc1cc(NC(=O)Nc2c[nH]c3cc(F)c(F)cc23)cnc1N1CC(F)(F)C1` [Compound 162, 1-(5,6-difluoro-1H-indol-3-yl)-3-(6-(3,3-difluoroazetidin-1-yl)-5-methylpyridin-3-yl)urea], for which the half-maximal effective concentration (EC50) lay in the range of 200 to 1000 nM.

Compound `O=C(Nc1cnc(N2CCC(F)(F)CC2)cn1)Nc1c[nH]c2ccc(Cl)cc12` [Compound 189, 1-(5-chloro-1H-indol-3-yl)-3-(5-(4,4-difluoropiperidin-1-yl)pyrazin-2-yl)urea] registered a half-maximal effective concentration (EC50) of 40 to 200 nM.

On to `CC(CC1CCC1)n1cc(NC(=O)Nc2c[nH]c3ccc(Cl)cc23)cn1` (stereo not shown) [Compound 217, 1-(5-chloro-1H-indol-3-yl)-3-(1-(1-cyclobutylpropan-2-yl)-1H-pyrazol-4-yl)urea], for which the EC50 was 200 to 1000 nM.

In the case of `O=C(Nc1ccc(C2CN(CC(F)(F)F)C2)c(Cl)c1)Nc1c[nH]c2ccc(Cl)cc12` [Compound 218, 1-(5-chloro-1H-indol-3-yl)-3-(3-chloro-4-(1-(2,2,2-trifluoroethyl)azetidin-3-yl)phenyl)urea], the concentration for a half-maximal effect (EC50) fell in the range of 40 to 200 nM.

Turning to `COCCN(C(=O)Nc1c[nH]c2ccc(Cl)cc12)c1cnc(C2CCC(F)(F)CC2)c(Cl)c1` [Compound 228, 3-(5-chloro-1H-indol-3-yl)-1-(5-chloro-6-(4,4-difluorocyclohexyl)pyridin-3-yl)-1-(2-methoxyethyl)urea], the EC50 lay in the range of 200 to 1000 nM.

In turn, `O=C(Nc1cnc(N2CCC(F)(F)CC2)c(Cl)c1)Nc1c[nH]c2cc(F)c(F)cc12` [Compound 199, 1-(5-chloro-6-(4,4-difluoropiperidin-1-yl)pyridin-3-yl)-3-(5,6-difluoro-1H-indol-3-yl)urea] showed a half-maximal effective concentration (EC50) of 40 to 200 nM.

`Cc1cc(NC(=O)Nc2c[nH]c3cc(F)c(F)cc23)cnc1N1CC2(COC2)C1` [Compound 160, 1-(5,6-difluoro-1H-indol-3-yl)-3-(5-methyl-6-(2-oxa-6-azaspiro[3.3]heptan-6-yl)pyridin-3-yl)urea] registered a concentration giving a half-maximal response (EC50) greater than 30000 nM.

The compound `CN(C(=O)Nc1c[nH]c2ccc(Cl)cc12)c1cnc(N2CCC(F)(F)CC2)c(Cl)c1` [Compound 258, 3-(5-chloro-1H-indol-3-yl)-1-(5-chloro-6-(4,4-difluoropiperidin-1-yl)pyridin-3-yl)-1-methylurea] displayed an EC50 of 200 to 1000 nM.

With `O=C(Nc1cnc(N2CC3(C2)CC(F)(F)C3)c(Cl)c1)Nc1c[nH]c2c(Br)cc(Cl)cc12` [Compound 244, 1-(7-bromo-5-chloro-1H-indol-3-yl)-3-(5-chloro-6-(6,6-difluoro-2-azaspiro[3.3]heptan-2-yl)pyridin-3-yl)urea], the EC50 fell in the range of 1000 to 5000 nM.

As to `O=C(Nc1cnc(C2CCC(F)(F)CC2)c(Cl)c1)Nc1c[nH]c2c(Br)cc(Cl)cc12` [Compound 247, 1-(7-bromo-5-chloro-1H-indol-3-yl)-3-(5-chloro-6-(4,4-difluorocyclohexyl)pyridin-3-yl)urea], the concentration for a half-maximal effect (EC50) lay within 200 to 1000 nM.

In turn, `Cc1cc(NC(=O)Nc2c[nH]c3ccc(Br)cc23)cnc1N1CCC(F)(F)CC1` [Compound 184, 1-(5-bromo-1H-indol-3-yl)-3-(6-(4,4-difluoropiperidin-1-yl)-5-methylpyridin-3-yl)urea] had an EC50 of 40 to 200 nM.

For `O=C(Nc1cnc(N2CC3(CN(CC(F)(F)F)C3)C2)c(Cl)c1)Nc1c[nH]c2ccccc12` [Compound 250, 1-(5-chloro-6-(6-(2,2,2-trifluoroethyl)-2,6-diazaspiro[3.3]heptan-2-yl)pyridin-3-yl)-3-(1H-indol-3-yl)urea], the EC50 lay within 200 to 1000 nM.

In the case of `O=C(Nc1cnc(N2CC3(C2)CC(F)(F)C3)c(F)c1)Nc1c[nH]c2ccc(Cl)cc12` [Compound 137, 1-(5-chloro-1H-indol-3-yl)-3-(6-(6,6-difluoro-2-azaspiro[3.3]heptan-2-yl)-5-fluoropyridin-3-yl)urea], the EC50 is 40 to 200 nM.

In turn, `Cc1cc(NC(=O)Nc2c[nH]c3ccccc23)cnc1C1CCN(CC(F)(F)F)CC1` [Compound 276, 1-(1H-indol-3-yl)-3-(5-methyl-6-(1-(2,2,2-trifluoroethyl)piperidin-4-yl)pyridin-3-yl)urea] showed an EC50 of 200 to 1000 nM.

Compound `O=C(Nc1ccc(C2CC(F)(F)C2)c(F)c1)Nc1c[nH]c2ccc(F)cc12` [Compound 272, 1-(4-(3,3-difluorocyclobutyl)-3-fluorophenyl)-3-(5-fluoro-1H-indol-3-yl)urea] came in with a 50% effective concentration (EC50) of 40 to 200 nM.

`O=C(Nc1cnc(N2CCC(F)(F)CC2)c(CCO)c1)Nc1c[nH]c2cc(F)c(F)cc12` [Compound 143, 1-(5,6-difluoro-1H-indol-3-yl)-3-(6-(4,4-difluoropiperidin-1-yl)-5-(2-hydroxyethyl)pyridin-3-yl)urea]: the concentration for a half-maximal effect (EC50) lay in the range of 200 to 1000 nM.

The compound `CSc1ccc2[nH]cc(NC(=O)Nc3cnc(N4CCC(F)(F)CC4)c(Cl)c3)c2c1` [Compound 183, 1-(5-chloro-6-(4,4-difluoropiperidin-1-yl)pyridin-3-yl)-3-(5-(methylthio)-1H-indol-3-yl)urea] came in with an EC50 of 40 to 200 nM.

With `O=C(Nc1cnc(C2CC(F)(F)C2)c(Cl)c1)Nc1c[nH]c2cc(F)c(F)cc12` [Compound 173, 1-(5-chloro-6-(3,3-difluorocyclobutyl)pyridin-3-yl)-3-(5,6-difluoro-1H-indol-3-yl)urea], the EC50 fell in the range of 200 to 1000 nM.

Take `O=C(Nc1cnc(N2CCC(F)(F)CC2)cn1)Nc1c[nH]c2ccccc12` [Compound 205, 1-(5-(4,4-difluoropiperidin-1-yl)pyrazin-2-yl)-3-(1H-indol-3-yl)urea]: the EC50 was 200 to 1000 nM.

With `O=C(Nc1cnc(N2CC3(C2)CC(F)(F)C3)c(Cl)c1)Nc1c[nH]c2ccc(Cl)cc12` [Compound 138, 1-(5-chloro-1H-indol-3-yl)-3-(5-chloro-6-(6,6-difluoro-2-azaspiro[3.3]heptan-2-yl)pyridin-3-yl)urea], the EC50 was 40 to 200 nM.

In the case of `O=C(Nc1ccc(C2CC(F)(F)C2)c(Cl)c1)Nc1c[nH]c2ccc(Cl)cc12` [Compound 226, 1-(5-chloro-1H-indol-3-yl)-3-(3-chloro-4-(3,3-difluorocyclobutyl)phenyl)urea], the EC50 was 40 to 200 nM.

On to `O=C(Nc1cnc(N2CCC(F)(F)CC2)c(Cl)c1)Nc1c[nH]c2c(Br)cc(Cl)cc12` [Compound 232, 1-(7-bromo-5-chloro-1H-indol-3-yl)-3-(5-chloro-6-(4,4-difluoropiperidin-1-yl)pyridin-3-yl)urea], for which the EC50 is 200 to 1000 nM.

As to `O=C(Nc1cnc(N2CCN(CC(F)(F)F)CC2)c(F)c1)Nc1c[nH]c2cc(F)c(F)cc12` [Compound 251, 1-(5,6-difluoro-1H-indol-3-yl)-3-(5-fluoro-6-(4-(2,2,2-trifluoroethyl)piperazin-1-yl)pyridin-3-yl)urea], the half-maximal effective concentration (EC50) was in the range of 40 to 200 nM.

Compound `N#Cc1cc(NC(=O)Nc2c[nH]c3ccccc23)ccc1C1CCC(F)(F)CC1` [Compound 207, 1-(3-cyano-4-(4,4-difluorocyclohexyl)phenyl)-3-(1H-indol-3-yl)urea] had a half-maximal effective concentration (EC50) of 40 to 200 nM.
